Assay results: patent US4481149A, “Fluorine-containing phenyl benzoate compounds, and their production and use” (Daikin Kogyo Co., Ltd., priority 1978, dated 1984)

Assay: Temperature range of liquid crystal (MR)
Format: physicochemical
Details: Table 1

SMILES | Temperature (MR) Range of liquid crystal | Temperature (MR) Range of liquid crystal (monotropic)
N#Cc1ccc(OC(=O)c2ccc(C(F)(F)C(F)(F)C(F)(F)C(F)(F)C(F)(F)C(F)(F)F)cc2)cc1 [Example 15] | 99.8-123.3 °C | 
CCCCCCOc1ccc(C(=O)Oc2ccc(C(F)(F)F)cc2)cc1 [Example 8, p'-trifluoromethylphenyl p-n-hexyloxybenzoate] | 74.7-76.5 °C | 
N#Cc1ccc(OC(=O)c2ccc(C(F)(F)C(F)(F)C(F)(F)C(F)(F)C(F)(F)C(F)(F)C(F)(C(F)(F)F)C(F)(F)F)cc2)cc1 [Example 14] | 130.7-140.7 °C | 
CCCCCCCCOc1ccc(C(=O)Oc2ccc(C(F)(F)F)cc2)cc1 [Example 10, p'-trifluoromethylphenyl p-n-octyloxybenzoate] | 62.5-72.5 °C | 
N#Cc1ccc(OC(=O)c2ccc(C(F)(F)C(F)(F)C(F)(F)C(F)(F)C(F)(F)C(F)(F)C(F)(F)C(F)(F)F)cc2)cc1 [Example 16] | 118-145 °C | 
O=C(Oc1ccc(C(F)(F)F)cc1)c1ccc(C(F)(F)C(F)(F)C(F)(C(F)(F)F)C(F)(F)F)cc1 [Example 19] |  | 67.5-68.7 °C
N#Cc1ccc(OC(=O)c2ccc(C(F)(F)C(F)(F)C(F)(F)C(F)(F)C(F)(C(F)(F)F)C(F)(F)F)cc2)cc1 [Example 13] | 109.6-121.3 °C | 
CCCCCCCc1ccc(C(=O)Oc2ccc(C(F)(F)F)cc2)cc1 [Example 4, p'-trifluoromethylphenyl p-n-heptylbenzoate] |  | 61.0 °C
CCCCCc1ccc(OC(=O)c2ccc(C(F)(F)C(F)(F)C(F)(C(F)(F)F)C(F)(F)F)cc2)cc1 [Example 18] |  | 57-58 °C
CCCCCc1ccc(C(=O)Oc2ccc(C(F)(F)F)cc2)cc1 [Example 2, p'-trifluoromethylphenyl p-n-pentylbenzoate] |  | 66.8 °C
Cc1ccc(OC(=O)c2ccc(C(F)(F)C(F)(F)C(F)(F)C(F)(F)C(F)(F)C(F)(F)C(F)(F)C(F)(F)F)cc2)cc1 [Example 17] |  | 111-112 °C
O=C(Oc1ccc([N+](=O)[O-])cc1)c1ccc(C(F)(F)C(F)(F)C(F)(C(F)(F)F)C(F)(F)F)cc1 [Example 20] | 68.6-79.2 °C | 
CCCCCOc1ccc(C(=O)Oc2ccc(C(F)(F)F)cc2)cc1 [Example 7, p'-trifluoromethylphenyl p-n-pentyloxybenzoate] |  | 78.5 °C
CCCCOc1ccc(C(=O)Oc2ccc(C(F)(F)F)cc2)cc1 [C4 H9 O / CF3] |  | 93.4 °C
CCCCCCCCc1ccc(C(=O)Oc2ccc(C(F)(F)F)cc2)cc1 [Example 5, p'-trifluoromethylphenyl p-n-octylbenzoate] |  | 58.5 °C
CCCCc1ccc(C(=O)Oc2ccc(C(F)(F)F)cc2)cc1 [Example 1, p'-trifluoromethylphenyl p-n-butylbenzoate] |  | 67.8 °C
CCCCCCCOc1ccc(C(=O)Oc2ccc(C(F)(F)F)cc2)cc1 [Example 9, p'-trifluoromethylphenyl p-n-heptyloxybenzoate] | 62.9-74.3 °C | 
N#Cc1ccc(OC(=O)c2ccc(C(F)(F)C(F)(F)C(F)(C(F)(F)F)C(F)(F)F)cc2)cc1 [Example 12, p'-Cyanophenyl p-(3-trifluoromethylperfluorobutyl)benzoate] | 90.0-98.5 °C | 
CCCCCCc1ccc(C(=O)Oc2ccc(C(F)(F)F)cc2)cc1 [Example 3, p'-trifluoromethylphenyl p-n-hexylbenzoate] |  | 58.8 °C
